Measured values published in article PMC7435877 (Molecules, 2020).
Where two headings read alike, the source gives them in different places.

How the values were obtained:
LoVo = experiment: In vitro antiproliferative activity, SRB assay, LoVo; format: cell-based, human; conditions: for IC50: 72 h, read-out: Antiproliferative activity IC50, LoVo
BALB/3T3 = experiment: In vitro antiproliferative activity, SRB assay, normal fibroblasts BALB/3T3; format: cell-based; conditions: normal murine embryonic fibroblast BALB/3T3, 72 h, mean ± SD
MCF-7 = experiment: In vitro antiproliferative activity, SRB assay, MCF-7; format: cell-based, human; conditions: for IC50: read-out: Antiproliferative activity IC50, MCF-7
A549 = experiment: In vitro antiproliferative activity, SRB assay, A549; format: cell-based, human; conditions: for IC50: read-out: Antiproliferative activity IC50, A549
LoVo/DX = experiment: In vitro antiproliferative activity, SRB assay, doxorubicin-resistant LoVo/DX; format: cell-based, human; conditions: for Resistance index (RI): RI = IC50 LoVo/DX / IC50 LoVo; for IC50: 72 h
[1] = test system: A549, MCF-7, LoVo, and LoVo/DX cells; experiment: In vitro antiproliferative activity, SRB assay, summary over the tumor cell lines tested; format: cell-based; conditions: Homo sapiens, read-out: IC50, span over all tumor cell lines tested
Description: . Detailed information concerning antiproliferation assay can be found in Supplementary Materials. […]
neutralized with 4M NaOH to pH~10 and extracted four times with EtOAc. The organic layers were combined, washed with brine, dried over Na2SO4, filtered off and evaporated under reduced pressure. The residue was purified using column flash chromatography (silica gel; DCM/MeOH, 20/1 v/v) and next lyophilized from dioxane to give the pure product 3 as a yellow solid with a yield of 73%.
In vitro antiproliferative activity
Cell lines and culturing conditions
Four human cancer cell lines and one murine normal cell line were used to evaluate antiproliferative […]
adenocarcinoma (MCF-7), human colon adenocarcinoma cell lines sensitive and resistant to doxorubicin (LoVo) and (LoVo/DX) respectively, and normal murine embryonic fibroblast cell line (BALB/3T3). The A549 cell line was purchased from the European Collection of Authenticated Cell Cultures (ECACC, Salisbury, UK). The MCF-7, LoVo and LoVo/DX cell lines was purchased from American Type Culture Collection (ATCC, Manassas, VA, USA). All the cell lines are maintained in the Institute of Immunology and Experimental Therapy (IIET), Wroclaw, Poland. […]

[2] = Homo sapiens, LoVo/DX, read-out: Antiproliferative activity IC50, LoVo/DX, doxorubicin-resistant subline LoVo/DX, 72 h, SRB, mean ± SD
[3] = read-out: Antiproliferative activity IC50, LoVo/DX, doxorubicin-resistant subline LoVo/DX, SRB, mean ± SD

SMILES	Resistance index (RI) (LoVo/DX)	IC50 (LoVo; Homo sapiens, LoVo)	IC50 (A549; Homo sapiens, A549, 72 h)	IC50 (MCF-7; Homo sapiens, MCF7, 72 h)	IC50 (LoVo/DX; [2])	also measured
N.N.[Cl][Pt][Cl] [Cisplatin, cisplatin, reference compound]	0.9					IC50 (LoVo; human colon adenocarcinoma LoVo, SRB, mean ± SD): 5460 ± 1410 nM; IC50 (BALB/3T3): 3970 ± 995 nM; IC50 (MCF-7; human breast adenocarcinoma MCF-7, 72 h, SRB, mean ± SD): 5810 ± 2610 nM; IC50 (A549; human lung adenocarcinoma A549, 72 h, SRB, mean ± SD): 4920 ± 1850 nM; IC50 (LoVo/DX; doxorubicin-resistant subline LoVo/DX, SRB, mean ± SD, read-out: Antiproliferative activity IC50, LoVo/DX): 5010 ± 1560 nM
CNc1ccc2c(cc1=O)C(NC(C)=O)CCc1cc(OC)c(OC)c(OC)c1-2 (stereo not shown) [Compound 2, 10-N-methylaminocolchicine]		1.2 ± 0.2 nM	7.2 ± 1.3 nM			
CNc1ccc2c(cc1=O)[C@@H](N)CCc1cc(OC)c(OC)c(OC)c1-2 [Compound 3, N-deacetyl-10-methylamino-10-demethoxycolchicine]		7.4 ± 2.7 nM	8.6 ± 3.9 nM	9.8 ± 4.5 nM		
CCN[C@H]1CCc2cc(OC)c(OC)c(OC)c2-c2ccc(NC)c(=O)cc21 [Compound 4]	8.5	7.3 ± 2.5 nM	9.4 ± 3.2 nM	8.7 ± 3.3 nM	62 ± 7.5 nM	
CCCN[C@H]1CCc2cc(OC)c(OC)c(OC)c2-c2ccc(NC)c(=O)cc21 [Compound 5]	3.5	5 ± 0.1 nM	10.5 ± 0.7 nM	10.4 ± 0.6 nM	17.2 ± 6.7 nM	
CCCCN[C@H]1CCc2cc(OC)c(OC)c(OC)c2-c2ccc(NC)c(=O)cc21 [Compound 6]	1.7	7.8 ± 1.3 nM	8.1 ± 2.6 nM	8.7 ± 3.1 nM	13.3 ± 5.8 nM	
CCCCCCCCCCN[C@H]1CCc2cc(OC)c(OC)c(OC)c2-c2ccc(NC)c(=O)cc21 [Compound 7]	2.1	46.6 ± 15.5 nM	88.4 ± 3.2 nM	75.2 ± 10.8 nM	99.5 ± 35.5 nM	
CNc1ccc2c(cc1=O)[C@@H](NCC(C)C)CCc1cc(OC)c(OC)c(OC)c1-2 [Compound 8]	1.1	7.8 ± 1 nM	9.6 ± 1.3 nM	9.7 ± 1.5 nM	≤ 10 nM	IC50 (LoVo/DX; [3]): 8.5 ± 1.1 nM
CNc1ccc2c(cc1=O)[C@@H](NCCO)CCc1cc(OC)c(OC)c(OC)c1-2 [Compound 9]	23.6	5.6 ± 1.5 nM	9.2 ± 2.2 nM	10.1 ± 1.2 nM	132 ± 37.5 nM	
CNc1ccc2c(cc1=O)[C@@H](NCCC#N)CCc1cc(OC)c(OC)c(OC)c1-2 [Compound 10]	25.9	2 ± 0.6 nM	9 ± 1 nM	7.5 ± 0.7 nM	51.5 ± 8.6 nM	
CNc1ccc2c(cc1=O)[C@@H](NCCCCl)CCc1cc(OC)c(OC)c(OC)c1-2 [Compound 11]	10.0	1.3 ± 0.3 nM	8.4 ± 2.2 nM	7.6 ± 2.8 nM	12.8 ± 3.3 nM	
CNc1ccc2c(cc1=O)[C@@H](NCCC(F)(F)F)CCc1cc(OC)c(OC)c(OC)c1-2 [Compound 12]	3.6	2.3 ± 1.3 nM	9.5 ± 0.2 nM	9 ± 1.7 nM	8.2 ± 0.6 nM	
CNc1ccc2c(cc1=O)[C@@H](NCc1ccccc1)CCc1cc(OC)c(OC)c(OC)c1-2 [Compound 13]	7.0	0.9 ± 0.4 nM	4.6 ± 1.8 nM	7.3 ± 4.4 nM	6 ± 0.8 nM	
CNc1ccc2c(cc1=O)[C@@H](NCc1ccccc1Cl)CCc1cc(OC)c(OC)c(OC)c1-2 [Compound 14, N-(2-chlorobenzyl)-10-methylaminocolchicine]		0.1 ± 0.02 nM	1.1 ± 0.7 nM	0.7 ± 0.4 nM	1.6 ± 1 nM	IC50 [1]: 0.1 to 1.6 nM; Selectivity index (SI), MCF-7 (MCF-7; SI = IC50 BALB/3T3 / IC50 MCF-7): 6.1; Selectivity index (SI), A549 (A549; SI = IC50 BALB/3T3 / IC50 A549): 4.1; Selectivity index (SI), LoVo/DX (LoVo/DX; SI = IC50 BALB/3T3 / IC50 LoVo/DX): 2.8; Potency relative to unmodified colchicine 1, LoVo/DX (LoVo/DX; times more potent than 1 towards LoVo/DX): approx. 440 times
CNc1ccc2c(cc1=O)[C@@H](NCc1ccc(O)cc1)CCc1cc(OC)c(OC)c(OC)c1-2 [Compound 15]	13.9	5.2 ± 0.5 nM	8.9 ± 1.4 nM	8.5 ± 0.9 nM	72.2 ± 12.5 nM	
CNc1ccc2c(cc1=O)[C@@H](NCc1ccncc1)CCc1cc(OC)c(OC)c(OC)c1-2 [Compound 16]	9.3	5.2 ± 1.9 nM	8.9 ± 1.7 nM	9.6 ± 1.8 nM	48.1 ± 14.5 nM	
CNc1ccc2c(cc1=O)[C@@H](NCc1cccs1)CCc1cc(OC)c(OC)c(OC)c1-2 [Compound 17]	8.9	0.9 ± 0.3 nM	9.4 ± 0.5 nM	9.3 ± 0.6 nM	≤ 10 nM	Selectivity index (SI), LoVo (LoVo; SI = IC50 BALB/3T3 / IC50 LoVo): > 3; IC50 (LoVo/DX; [3]): 7.9 ± 1 nM
